Activity calls are given as the source filed them. The rule behind the calls is not given here.
Tested on: rodent lifetime carcinogenesis bioassay, tumor incidence TD50
Assay: carcinogenic potency in animals, long-term in vivo studies, CPDB compilation (AID 1745844)

O=CNNC=O
TD50 (mouse, strain Swiss albino, females, in drinking water, site: liver, lesion: hepatoma, dosed 83 weeks, study length 83 weeks): 7820 mg/kg/day (inactive)
TD50 (mouse, strain Swiss albino, females, in drinking water, site: liver, lesion: several types, types named in the paper, dosed 83 weeks, study length 83 weeks): 89200 mg/kg/day
TD50 (mouse, strain Swiss albino, females, in drinking water, site: lung, lesion: adenocarcinoma, dosed 83 weeks, study length 83 weeks): 2170 mg/kg/day
TD50 (mouse, strain Swiss albino, females, in drinking water, site: lung, lesion: adenoma, dosed 83 weeks, study length 83 weeks): 561 mg/kg/day
TD50 (mouse, strain Swiss albino, females, in drinking water, site: lung, lesion: several types, types named in the paper, dosed 83 weeks, study length 83 weeks): 571 mg/kg/day
TD50 (mouse, strain Swiss albino, males, in drinking water, site: liver, lesion: hepatoma, dosed 83 weeks, study length 83 weeks): 11300 mg/kg/day (inactive)
TD50 (mouse, strain Swiss albino, males, in drinking water, site: liver, lesion: several types, types named in the paper, dosed 83 weeks, study length 83 weeks): 8140 mg/kg/day
TD50 (mouse, strain Swiss albino, males, in drinking water, site: lung, lesion: adenocarcinoma, dosed 83 weeks, study length 83 weeks): 4530 mg/kg/day
TD50 (mouse, strain Swiss albino, males, in drinking water, site: lung, lesion: adenoma, dosed 83 weeks, study length 83 weeks): 779 mg/kg/day
TD50 (mouse, strain Swiss albino, males, in drinking water, site: lung, lesion: several types, types named in the paper, dosed 83 weeks, study length 83 weeks): 806 mg/kg/day

COc1ccc2nc(S(=O)Cc3ncc(C)c(OC)c3C)[nH]c2c1 (configuration not stated)
TD50 (rat, strain Sprague-Dawley, females, by gavage, site: gastric mucosa, lesion: carcinoid tumor, malignant, dosed 104 weeks, study length 104 weeks): 63 mg/kg/day
TD50 (rat, strain Sprague-Dawley, males, by gavage, site: gastric mucosa, lesion: carcinoid tumor, malignant, dosed 104 weeks, study length 104 weeks): 1120 mg/kg/day

Cn1cc(C(=O)[C@@H]2CCc3nc[nH]c3C2)c2ccccc21
carcinogen call (mouse, strain B6C3F1, females, by gavage, site: liver, lesion: hepatocellular adenoma, dosed 104 weeks, study length 104 weeks): negative (inactive)
TD50 (mouse, strain B6C3F1, females, by gavage, site: liver, lesion: hepatocellular carcinoma, dosed 104 weeks, study length 104 weeks): 1040 mg/kg/day (inactive)
carcinogen call (mouse, strain B6C3F1, females, by gavage, site: lung, lesion: adenoma, dosed 104 weeks, study length 104 weeks): negative (inactive)
carcinogen call (mouse, strain B6C3F1, females, by gavage, site: lung, lesion: carcinoma, dosed 104 weeks, study length 104 weeks): negative (inactive)
carcinogen call (mouse, strain B6C3F1, males, by gavage, site: liver, lesion: hepatocellular adenoma, dosed 104 weeks, study length 104 weeks): negative (inactive)
carcinogen call (mouse, strain B6C3F1, males, by gavage, site: liver, lesion: hepatocellular carcinoma, dosed 104 weeks, study length 104 weeks): negative (inactive)
carcinogen call (mouse, strain B6C3F1, males, by gavage, site: lung, lesion: adenoma, dosed 104 weeks, study length 104 weeks): negative (inactive)
carcinogen call (mouse, strain B6C3F1, males, by gavage, site: lung, lesion: carcinoma, dosed 104 weeks, study length 104 weeks): negative (inactive)
carcinogen call (rat, strain Fischer 344, females, by gavage, site: liver, lesion: hepatocellular adenoma, dosed 104 weeks, study length 104 weeks): negative (inactive)
carcinogen call (rat, strain Fischer 344, males, by gavage, site: liver, lesion: hepatocellular adenoma, dosed 104 weeks, study length 104 weeks): negative (inactive)

CN(C)C(=O)Nc1cccc(C(F)(F)F)c1
TD50 (mouse, strain B6C3F1, females, in feed, site: any site (literature study), lesion: several types, types named in the paper, dosed 103 weeks, study length 103 weeks): 369 mg/kg/day (inactive)
TD50 (mouse, strain B6C3F1, females, in feed, site: liver, lesion: hepatocellular adenoma + hepatocellular carcinoma + neoplastic nodule, dosed 103 weeks, study length 103 weeks): 1230 mg/kg/day
TD50 (mouse, strain B6C3F1, males, in feed, site: any site (literature study), lesion: several types, types named in the paper, dosed 103 weeks, study length 103 weeks): 265 mg/kg/day
TD50 (mouse, strain B6C3F1, males, in feed, site: liver, lesion: hepatocellular adenoma + hepatocellular carcinoma + neoplastic nodule, dosed 103 weeks, study length 103 weeks): 229 mg/kg/day
TD50 (mouse, strain B6C3F1, males, in feed, site: liver, lesion: hepatocellular adenoma + hepatocellular carcinoma, dosed 103 weeks, study length 103 weeks): 229 mg/kg/day
TD50 (mouse, strain B6C3F1, males, in feed, site: lung, lesion: alveolar/bronchiolar adenoma + alveolar/bronchiolar carcinoma, dosed 103 weeks, study length 103 weeks): 1420 mg/kg/day
carcinogen call (rat, strain Fischer 344, females, in feed, site: any site (literature study), lesion: several types, types named in the paper, dosed 103 weeks, study length 104 weeks): negative (inactive)
TD50 (rat, strain Fischer 344, males, in feed, site: liver, lesion: hepatocellular adenoma + hepatocellular carcinoma + neoplastic nodule, dosed 103 weeks, study length 104 weeks): 55.4 mg/kg/day
TD50 (rat, strain Fischer 344, males, in feed, site: liver, lesion: neoplastic nodule, dosed 103 weeks, study length 104 weeks): 55.4 mg/kg/day (inactive)

O=C(CCl)c1ccccc1
TD50 (mouse, strain B6C3F1, females, inhaled, site: any site (literature study), lesion: several types, types named in the paper, dosed 103 weeks, study length 105 weeks): 4.31 mg/kg/day (inactive)
TD50 (mouse, strain B6C3F1, females, inhaled, site: lung, lesion: alveolar/bronchiolar adenoma + alveolar/bronchiolar carcinoma, dosed 103 weeks, study length 105 weeks): 33.4 mg/kg/day
TD50 (mouse, strain B6C3F1, males, inhaled, site: any site (literature study), lesion: several types, types named in the paper, dosed 103 weeks, study length 106 weeks): 2.69 mg/kg/day (inactive)
TD50 (mouse, strain B6C3F1, males, inhaled, site: liver, lesion: hepatocellular adenoma + hepatocellular carcinoma + neoplastic nodule, dosed 103 weeks, study length 106 weeks): 5.24 mg/kg/day
TD50 (mouse, strain B6C3F1, males, inhaled, site: lung, lesion: alveolar/bronchiolar adenoma + alveolar/bronchiolar carcinoma, dosed 103 weeks, study length 106 weeks): 10.4 mg/kg/day
TD50 (rat, strain Fischer 344, females, inhaled, site: any site (literature study), lesion: several types, types named in the paper, dosed 103 weeks, study length 105 weeks): 0.859 mg/kg/day
TD50 (rat, strain Fischer 344, females, inhaled, site: mammary gland, lesion: adenocarcinoma + adenoma + fibroadenoma, dosed 103 weeks, study length 105 weeks): 0.224 mg/kg/day
TD50 (rat, strain Fischer 344, females, inhaled, site: mammary gland, lesion: adenoma + fibroadenoma, dosed 103 weeks, study length 105 weeks): 0.208 mg/kg/day
TD50 (rat, strain Fischer 344, females, inhaled, site: mammary gland, lesion: fibroadenoma, dosed 103 weeks, study length 105 weeks): 0.211 mg/kg/day
carcinogen call (rat, strain Fischer 344, males, inhaled, site: any site (literature study), lesion: several types, types named in the paper, dosed 103 weeks, study length 105 weeks): negative (inactive)

CNC(=S)N(C)C
TD50 (mouse, strain B6C3F1, females, in feed, site: any site (literature study), lesion: several types, types named in the paper, dosed 77 weeks, study length 91 weeks): 1970 mg/kg/day (inactive)
TD50 (mouse, strain B6C3F1, females, in feed, site: lung, lesion: alveolar/bronchiolar adenoma + alveolar/bronchiolar carcinoma, dosed 77 weeks, study length 91 weeks): 1260 mg/kg/day
carcinogen call (mouse, strain B6C3F1, males, in feed, site: any site (literature study), lesion: several types, types named in the paper, dosed 77 weeks, study length 91 weeks): negative (inactive)
TD50 (mouse, strain B6C3F1, males, in feed, site: lung, lesion: alveolar/bronchiolar adenoma + alveolar/bronchiolar carcinoma, dosed 77 weeks, study length 91 weeks): 478 mg/kg/day
TD50 (rat, strain Fischer 344, females, in feed, site: any site (literature study), lesion: several types, types named in the paper, dosed 77 weeks, study length 106 weeks): 17.4 mg/kg/day
TD50 (rat, strain Fischer 344, females, in feed, site: thyroid gland, lesion: follicular-cell adenoma + follicular-cell carcinoma, dosed 77 weeks, study length 106 weeks): 25.8 mg/kg/day
TD50 (rat, strain Fischer 344, females, in feed, site: thyroid gland, lesion: follicular-cell carcinoma, dosed 77 weeks, study length 106 weeks): 45 mg/kg/day
carcinogen call (rat, strain Fischer 344, males, in feed, site: any site (literature study), lesion: several types, types named in the paper, dosed 77 weeks, study length 106 weeks): negative (inactive)

O=C(OC[C@@H]1O[C@H](OC(=O)c2cc(O)c(O)c(OC(=O)c3cc(O)c(O)c(O)c3)c2)[C@@H](OC(=O)c2cc(O)c(O)c(OC(=O)c3cc(O)c(O)c(O)c3)c2)[C@H](OC(=O)c2cc(O)c(O)c(OC(=O)c3cc(O)c(O)c(O)c3)c2)[C@H]1OC(=O)c1cc(O)c(O)c(OC(=O)c2cc(O)c(O)c(O)c2)c1)c1cc(O)c(O)c(OC(=O)c2cc(O)c(O)c(O)c2)c1
TD50 (rat, strain F344/DuCrj, females, in drinking water, site: any site (literature study), lesion: several types, types named in the paper, dosed 104 weeks, study length 114 weeks): 620 mg/kg/day (inactive)
TD50 (rat, strain F344/DuCrj, females, in drinking water, site: liver, lesion: hepatocellular adenoma, dosed 104 weeks, study length 114 weeks): 16000 mg/kg/day (inactive)
carcinogen call (rat, strain F344/DuCrj, males, in drinking water, site: any site (literature study), lesion: several types, types named in the paper, dosed 104 weeks, study length 114 weeks): negative (inactive)
carcinogen call (rat, strain F344/DuCrj, males, in drinking water, site: liver, lesion: hepatocellular adenoma, dosed 104 weeks, study length 114 weeks): negative (inactive)

Clc1ccc(C(c2ccccc2Cl)C(Cl)Cl)cc1 (configuration not stated)
TD50 (mouse, strain B6AKF1, females, oral dosing, site: any site (literature study), lesion: several types, types named in the paper, dosed 76 weeks, study length 76 weeks): 102 mg/kg/day
TD50 (mouse, strain B6AKF1, females, oral dosing, site: lung, lesion: adenoma, dosed 76 weeks, study length 76 weeks): 236 mg/kg/day
TD50 (mouse, strain B6AKF1, males, oral dosing, site: any site (literature study), lesion: several types, types named in the paper, dosed 76 weeks, study length 76 weeks): 187 mg/kg/day
TD50 (mouse, strain B6AKF1, males, oral dosing, site: lung, lesion: adenoma, dosed 76 weeks, study length 76 weeks): 414 mg/kg/day
TD50 (mouse, strain B6AKF1, males, oral dosing, site: lung, lesion: carcinoma, dosed 76 weeks, study length 76 weeks): 467 mg/kg/day
TD50 (mouse, strain B6C3F1, males, oral dosing, site: all sites, lesion: reticulum-cell sarcoma, dosed 76 weeks, study length 76 weeks): 82.1 mg/kg/day
TD50 (mouse, strain B6C3F1, males, oral dosing, site: any site (literature study), lesion: several types, types named in the paper, dosed 76 weeks, study length 76 weeks): 38.5 mg/kg/day
TD50 (mouse, strain B6C3F1, males, oral dosing, site: liver, lesion: hepatoma, dosed 76 weeks, study length 76 weeks): 147 mg/kg/day
TD50 (mouse, strain B6C3F1, males, oral dosing, site: lung, lesion: adenoma, dosed 76 weeks, study length 76 weeks): 467 mg/kg/day

Cc1ccc(NC(N)=O)cc1
carcinogen call (mouse, strain C57BL/6, females, in feed, site: liver, lesion: hepatocellular carcinoma, dosed 52 weeks, study length 69 weeks): negative (inactive)
carcinogen call (mouse, strain C57BL/6, females, in feed, site: lung, lesion: alveolar/bronchiolar adenoma, dosed 52 weeks, study length 69 weeks): negative (inactive)
TD50 (mouse, strain C57BL/6, males, in feed, site: all sites, lesion: malignant lymphoma, histiocytic type, dosed 52 weeks, study length 69 weeks): 265 mg/kg/day
TD50 (mouse, strain C57BL/6, males, in feed, site: all sites, lesion: malignant lymphoma, dosed 52 weeks, study length 69 weeks): 206 mg/kg/day
TD50 (mouse, strain C57BL/6, males, in feed, site: liver, lesion: hepatocellular carcinoma, dosed 52 weeks, study length 69 weeks): 722 mg/kg/day (inactive)
carcinogen call (mouse, strain C57BL/6, males, in feed, site: lung, lesion: alveolar/bronchiolar adenoma, dosed 52 weeks, study length 69 weeks): negative (inactive)
TD50 (mouse, strain C57BL/6, males, in feed, site: mesenteric lymph node, lesion: malignant lymphoma, histiocytic type, dosed 52 weeks, study length 69 weeks): 626 mg/kg/day
TD50 (mouse, strain C57BL/6, males, in feed, site: multiple organs, lesion: malignant lymphoma, histiocytic type, dosed 52 weeks, study length 69 weeks): 441 mg/kg/day
carcinogen call (rat, strain Fischer 344, females, in feed, site: liver, lesion: one or several types, types not named, dosed 52 weeks, study length 69 weeks): negative (inactive)
TD50 (rat, strain Fischer 344, males, in feed, site: liver, lesion: hepatocellular carcinoma, dosed 52 weeks, study length 69 weeks): 699 mg/kg/day (inactive)

Reference: PubChem BioAssay AID1745844 (Carcinogenic Potency Database (CPDB), 2022)
